The target in one experiment is T1, HDAC8 (Homo sapiens, UniProt Q9BY41).
T1 sequence (Q9BY41 1-377): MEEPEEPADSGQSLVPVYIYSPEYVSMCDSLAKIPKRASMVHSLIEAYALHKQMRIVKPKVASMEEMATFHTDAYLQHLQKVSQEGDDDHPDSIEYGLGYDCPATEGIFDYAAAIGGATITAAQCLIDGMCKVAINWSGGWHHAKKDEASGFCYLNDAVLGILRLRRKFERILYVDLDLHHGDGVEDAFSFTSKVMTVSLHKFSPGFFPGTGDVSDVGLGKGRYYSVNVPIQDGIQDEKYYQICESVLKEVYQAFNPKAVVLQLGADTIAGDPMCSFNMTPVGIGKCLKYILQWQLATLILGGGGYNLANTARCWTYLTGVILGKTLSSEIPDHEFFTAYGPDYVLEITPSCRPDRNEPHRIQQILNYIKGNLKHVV
The experiment in a line: ITC. Type of experiment: binding. The note with it: […] HEPES pH […] KCl, […] glycerol, […] TCEP.

Experiment [1] has as its target T2, HDAC6 (catalytic domain 2, CD2) (Danio rerio, UniProt F8W4B7).
T2 sequence (F8W4B7 440-798): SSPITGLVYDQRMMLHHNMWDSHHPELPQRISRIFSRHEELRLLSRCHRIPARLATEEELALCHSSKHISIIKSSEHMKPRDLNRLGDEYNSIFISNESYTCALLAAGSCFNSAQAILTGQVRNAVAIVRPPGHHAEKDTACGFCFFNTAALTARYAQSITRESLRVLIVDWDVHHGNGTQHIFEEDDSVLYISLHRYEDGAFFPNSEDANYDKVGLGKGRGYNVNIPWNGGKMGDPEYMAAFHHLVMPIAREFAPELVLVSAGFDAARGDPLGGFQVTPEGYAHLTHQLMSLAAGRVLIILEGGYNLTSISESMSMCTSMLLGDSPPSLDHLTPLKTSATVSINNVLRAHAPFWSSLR
Description: ITC. Type of experiment: binding. The settings on record: […] HEPES pH […] KCl, […] glycerol, […] TCEP.

`O=C(NO)c1ccc(CN(CCO)C(=O)Cc2ccccc2)cc1` [HPB]: the Kd result (at HDAC8; in experiment [1]) was “we additionally studied the binding of the phenylhydroxamate derivative HPB” each time.
Turning to `O=C(CCCCCCNC(=O)c1cnc(N(c2ccccc2)c2ccccc2)nc1)NO` [Ricolinostat], the Kd entry in experiment [1] is given as “the aliphatic hydroxamate inhibitor Ricolinostat”.
Consider `O=C(CCCCCCC(=O)Nc1ccccc1)NO` [SAHA], for which the Kd result in experiment [1] is reported as “the aliphatic hydroxamate inhibitor suberoylanilide hydroxamic acid (SAHA)”.
